Source: US20250295109A1, “UNIVERSAL SYNERGIST FOR INSECT ATTRACTANTS” (North Carolina State University, priority 2022, published 2025)

Experiments:
male CEW antenna = assay: GC-EAD of female sex pheromone gland extract on male CEW antenna; design: species or system Helicoverpa zea; details: compound present in CEW female sex pheromone gland extract
Description: Based on the finding that nonanal attracts male CEW in laboratory and field behavioral studies, and as described hereinbelow, a study of the female sex pheromone gland extract of Helicoverpa zea was performed using a gas chromatography-electroantennograom detector (GC-EAD), a device that couples a GC to an insect antenna, the olefactory organ of insects that serves as a biological detector. In this device, the GC separates chemicals in a mixture and presents them to the antenna, and its electrophysiological responses reveal which chemicals it senses. […]
The sex pheromone glands of multiple CEW females were dissected and the contents extracted with hexane. […] In parallel to the GC, the electrophysiological response of the antenna is recorded to identify the active compounds. […] Gland extracts were also analyzed using gas chromatography-mass spectrometry (GC-MS) (6890 GC and 5975 MS, Agilent Technologies, Palo Alto, California, United States of America) The GC-MS was operated in pulsed splitless mode (15 psi for 0.5 min, then 6 psi) and equipped with a DB-WAXetr column (30 m×0.25 mm, df=0.25 μm, Agilent Technologies, Palo Alto, California, United States of America), and helium was used as the carrier gas at an average velocity of 34 cm/s. […]

[1] = system: male corn earworm (CEW, Helicoverpa zea); assay: field trapping of male CEW in Hartstack traps, nonanal and/or 1-hexanol; assay type: in vivo
From the text: FIG. 11 is a graph showing the results of a field trapping study of male com earworm (CEW, Helicoverpa zea) using traps containing a dispenser containing a solution of 0.5% nonanal and/or 0.5% 1-hexanol alone or also containing a dispenser for a commercial CEW sex pheromone lure. Effectiveness is reported as number of male CEW capture per day per trap.
To determine the effects of 1-hexanol and combinations of 1-hexanol and nonanal, Hartstack traps with or without the commercial CEW sex pheromone lure and with or without one or both of nonanal and 1-hexanol were placed in sorghum or corn fields. Nonanal and 1-hexanol, if present, were present at 0.5% on a weight to weight basis with the major component of the commercial pheromone lure.

SMILES: CCCCCCO [1-hexanol]
- EAD response of the antenna (male CEW antenna): elicit an EAD response in the antenna
- effectiveness in trapping male CEW, without commercial pheromone lure ([1]; 0.5% w/w level, without the commercial pheromone lure, sorghum or corn fields): not effective in trapping male CEW
- effectiveness of commercial lure in trapping male CEW when combined ([1]; 0.5% w/w with major component of commercial pheromone lure, used in combination with the commercial lure): improved its effectiveness
